In US20250188069A1, “COMPOUNDS AND METHODS FOR DEGRADING CASEIN KINASE 1 ALPHA” (PIN THERAPEUTICS, INC., priority 2022, published 2025):
pIC50: −log10 of the molar value. Counter-ions that a name gives are not always drawn.

Key:
CK1α = CK1α (Homo sapiens, UniProt P48729+Q96SW2); test: CK1α degradation, Western blot in MV-4-11 cells; format: cell-based; design: CK1α levels were determined in MV-4-11 cells using Jess (Protein Simple); host or cells: MV-4-11; details: % reduction of CK1α compared to DMSO, MV4-11 cells at 1 μM for 4 hours, read-out: CK1α degradation classification
Description: MM.1S and NCCIT cells were obtained from ATCC and grown in RPMI-1640 supplemented with 10% FBS. MV-4-11 cells were obtained from ATCC and grown in IMDM supplemented with 10% FBS. The cells were maintained at 37° C. under 5% CO2.
Compounds of the present disclosure was added to cells (final DMSO concentration of 0.1%) and incubated for 4 hours. CK1α levels were determined in MV-4-11 cells using Western blot analysis. Whole cell lysates were prepared in lysis buffer (1×RIPA buffer [Thermo, 89900], 2 mM MgCl2 [Sigma, M1028], 0.05% Benzonase [Sigma, E1014], 1× Pierce protease inhibitor tablets EDTA-free [Thermo, A32965]). […] of the lysates were analyzed using Western blot with antibodies against CK1α (Abcam, ab108296) and β-actin (R&D Systems, MAB8929).
The efficacy of CK1α degradation of other part of compounds of the present disclosure was determined by treating MV4-11 cells at 1 μM (Final DMSO concentration of 0.1%) for 4 hours. Protein levels relative to DMSO are calculated for CK1α. The compounds are classified based on the amount of CK1α degradation (% reduction of CK1α compared to DMSO) as follows. • A: Degradation is greater than or equal to 75%; • B: Degradation is less than 75% & greater than or equal to 50%; • C: Degradation is less than […]; • ND: not determined.

MV-4-11 cells = test: AML cell viability assay (RealTime-Glo); format: cell-based; details: Homo sapiens, MV4-11; IC50 class; MV-4-11 cells, RealTime-Glo after 44 hrs of treatment (TABLE 4); read-out: Cell viability classification

Sequence of CK1α (P48729 whole entry): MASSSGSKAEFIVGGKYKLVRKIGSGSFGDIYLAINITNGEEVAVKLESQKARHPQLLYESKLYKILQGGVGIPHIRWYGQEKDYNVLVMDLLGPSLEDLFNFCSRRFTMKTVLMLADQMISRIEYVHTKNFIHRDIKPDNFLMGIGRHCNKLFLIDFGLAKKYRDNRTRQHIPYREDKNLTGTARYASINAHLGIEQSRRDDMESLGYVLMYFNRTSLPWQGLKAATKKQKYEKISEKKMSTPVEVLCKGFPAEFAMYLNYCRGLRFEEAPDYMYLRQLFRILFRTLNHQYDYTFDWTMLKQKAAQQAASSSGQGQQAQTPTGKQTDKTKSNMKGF
Sequence of CK1α (Q96SW2 whole entry): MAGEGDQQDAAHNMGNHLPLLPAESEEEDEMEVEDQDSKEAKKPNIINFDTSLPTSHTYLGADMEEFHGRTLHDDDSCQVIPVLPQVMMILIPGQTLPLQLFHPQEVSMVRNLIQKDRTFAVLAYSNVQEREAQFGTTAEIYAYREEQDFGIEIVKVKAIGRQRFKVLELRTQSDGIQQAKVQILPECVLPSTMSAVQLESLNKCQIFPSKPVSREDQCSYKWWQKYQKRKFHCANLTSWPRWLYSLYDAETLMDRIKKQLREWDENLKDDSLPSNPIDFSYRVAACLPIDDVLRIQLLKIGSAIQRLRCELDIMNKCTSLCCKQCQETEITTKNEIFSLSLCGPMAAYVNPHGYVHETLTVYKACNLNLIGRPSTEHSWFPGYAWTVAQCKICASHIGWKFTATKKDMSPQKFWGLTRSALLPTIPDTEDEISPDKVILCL
Sequence of CK1α (Q16531 whole entry partner): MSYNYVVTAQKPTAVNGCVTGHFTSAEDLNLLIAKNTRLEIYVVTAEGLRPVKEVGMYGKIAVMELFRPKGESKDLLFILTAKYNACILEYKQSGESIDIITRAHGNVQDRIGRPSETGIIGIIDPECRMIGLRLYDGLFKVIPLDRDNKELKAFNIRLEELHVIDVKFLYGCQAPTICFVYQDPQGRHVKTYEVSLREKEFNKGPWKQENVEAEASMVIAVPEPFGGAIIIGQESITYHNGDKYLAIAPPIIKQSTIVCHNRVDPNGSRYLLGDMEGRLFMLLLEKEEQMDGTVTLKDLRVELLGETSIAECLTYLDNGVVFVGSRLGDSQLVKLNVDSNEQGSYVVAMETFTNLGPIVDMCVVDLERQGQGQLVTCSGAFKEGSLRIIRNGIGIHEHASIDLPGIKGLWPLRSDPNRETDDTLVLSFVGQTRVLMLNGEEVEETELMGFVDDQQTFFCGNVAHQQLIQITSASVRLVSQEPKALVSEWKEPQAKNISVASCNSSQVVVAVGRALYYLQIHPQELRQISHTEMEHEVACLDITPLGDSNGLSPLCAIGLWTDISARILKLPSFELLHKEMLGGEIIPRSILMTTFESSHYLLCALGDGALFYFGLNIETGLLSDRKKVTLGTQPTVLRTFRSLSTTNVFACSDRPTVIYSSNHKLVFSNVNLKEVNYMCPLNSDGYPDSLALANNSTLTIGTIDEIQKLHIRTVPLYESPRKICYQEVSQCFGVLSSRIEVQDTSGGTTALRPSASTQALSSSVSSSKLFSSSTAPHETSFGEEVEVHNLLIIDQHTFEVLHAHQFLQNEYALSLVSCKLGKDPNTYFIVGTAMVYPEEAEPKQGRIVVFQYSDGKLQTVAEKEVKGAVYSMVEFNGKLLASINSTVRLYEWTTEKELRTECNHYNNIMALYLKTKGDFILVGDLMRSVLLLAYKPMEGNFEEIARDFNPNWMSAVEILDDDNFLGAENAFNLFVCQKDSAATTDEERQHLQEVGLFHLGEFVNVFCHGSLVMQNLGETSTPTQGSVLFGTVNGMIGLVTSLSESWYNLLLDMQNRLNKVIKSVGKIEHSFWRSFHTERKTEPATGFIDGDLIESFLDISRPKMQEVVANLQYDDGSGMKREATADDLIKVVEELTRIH

SMILES	Dmax at 1 µM (CK1α) [%]	pIC50 (MV-4-11 cells)
O=C1CCC(N2Cc3c(cccc3N(CCC3CC3)[C@H]3CC[C@H](NCC4(F)CC4)CC3)C2=O)C(=O)N1 (stereo partly drawn) [Compound 612, 3-{4-[(2-cyclopropylethyl)[(1r,4r)-4-{[(1-fluorocyclopropyl)methyl]amino}cyclohexyl]amino]-1-oxo-3H-isoindol-2-yl}piperidine-2,6-dione]	> 75	> 7.00
O=C1CCC(N2Cc3c(cccc3N(CCC3CC3)[C@H]3CC[C@H](NCC4(F)COC4)CC3)C2=O)C(=O)N1 (stereo partly drawn) [Compound 616, 3-{4-[(2-cyclopropylethyl)[(1r,4r)-4-{[(3-fluorooxetan-3-yl)methyl]amino}cyclohexyl]amino]-1-oxo-3H-isoindol-2-yl}piperidine-2,6-dione; trifluoro acetate]	> 75	> 7.00
C[C@]1(N)CC[C@@H](N(CCC2CC2)c2cccc3c2CN(C2CCC(=O)NC2=O)C3=O)CC1 (stereo partly drawn) [Compound 635, 3-{4-[(2-cyclopropylethyl)[(1s,4s)-4-amino-4-methylcyclohexyl]amino]-1-oxo-3H-isoindol-2-yl}piperidine-2,6-dione]	> 75	> 7.00
O=C1CCC(N2Cc3c(cccc3N(CCC3CC3)[C@H]3CC[C@H](NCC4(F)CCC4)CC3)C2=O)C(=O)N1 (stereo partly drawn) [Compound 613, 3-{4-[(2-cyclopropylethyl)[(1r,4r)-4-{[(1-fluorocyclobutyl)methyl]amino}cyclohexyl]amino]-1-oxo-3H-isoindol-2-yl}piperidine-2,6-dione]	> 75	> 7.00
CS(=O)(=O)C1(CN[C@H]2CC[C@H](N(CCC3CC3)c3cccc4c3CN(C3CCC(=O)NC3=O)C4=O)CC2)CC1 (stereo partly drawn) [Compound 615, 3-{4-[(2-cyclopropylethyl)[(1r,4r)-4-{[(1-methanesulfonylcyclopropyl)methyl]amino}cyclohexyl]amino]-1-oxo-3H-isoindol-2-yl}piperidine-2,6-dione; trifluoroacetate]	> 75	> 7.00
O=C1CCC(N2Cc3c(cccc3N(CCCCC(F)(F)F)[C@H]3CC[C@H](NCCC(F)(F)F)CC3)C2=O)C(=O)N1 (stereo partly drawn) [Compound 636, 3-(1-oxo-4-{[(1r,4r)-4-[(3,3,3-trifluoropropyl)amino]cyclohexyl](5,5,5-trifluoropentyl)amino}-3H-isoindol-2-yl)piperidine-2,6-dione; trifluoroacetate]	> 75	6.00 to 7.00
O=C1CCC(N2Cc3c(cccc3N(CCC3CC3)[C@H]3C[C@@H](c4nnc[nH]4)C3)C2=O)C(=O)N1 (stereo partly drawn) [Compound 603, 3-{4-[(2-cyclopropylethyl)[(1s,3s)-3-(4H-1,2,4-triazol-3-yl)cyclobutyl]amino]-1-oxo-3H-isoindol-2-yl}piperidine-2,6-dione; formate]	> 75	> 7.00
C[C@]1(N)CC[C@H](N(CCC2CC2)c2cccc3c2CN(C2CCC(=O)NC2=O)C3=O)CC1 (stereo partly drawn) [Compound 634, 3-{4-[(2-cyclopropylethyl)[(1r,4r)-4-amino-4-methylcyclohexyl]amino]-1-oxo-3H-isoindol-2-yl}piperidine-2,6-dione]	50 to 75	6.00 to 7.00
O=C1CCC(N2Cc3c(cccc3N(CCC3CC3)[C@H]3C[C@H](c4nnc[nH]4)C3)C2=O)C(=O)N1 (stereo partly drawn) [Compound 604, 3-{4-[(2-cyclopropylethyl)[(1s,3s)-3-(4H-1,2,4-triazol-3-yl)cyclobutyl]amino]-1-oxo-3H-isoindol-2-yl}piperidine-2,6-dione; formate]	> 75	> 7.00
